Laboratory results published in patent US10130618B2, “Pharmaceutical combinations of dabigatran and proton pump inhibitors” (SANOVEL ILAC SANAYI VE TICARET ANONIM SIRKETI, priority 2014, dated 2018).

How the values were obtained:
[1] = DSC analysis of 1:1 API mixtures (compatibility with Dabigatran etexilate); format: physicochemical; settings: for DSC peak temperature of the mixture (peak shifting) / Compatibility by DSC: 1:1 mixture with Dabigatran etexilate; for DSC peak temperature of the mixture (peak shifting): 10° C./min, 30° C. to 300° C.; for Compatibility by DSC: characteristic peaks not determined; for Pharmaceutical incompatibility (discussion of DSC): with Dabigatran etexilate
Method: (§1) DSC Analysis: DSC scan of about 2 mg using an automatic thermal analyzer system performed accurately weighed of APIs (Dabigatran etexilate, Dabigatran etexilate mesylate, Esomeprazole, Dexlansoprazole) of 1:1 in ratio respectively. DSC scans performed with 10° C. per minute heat flow from 30° C. to 300° C. The peak shifting of active ingredients was determined by DSC analysis.
(§2) Method Log: • 1: Pan Type: Aluminum hermetic • 2: Equilibrate at 30.00° C. • 3: Ramp 10.00 ° C./min to 300.00° C. • 4: End of method
(§3) Results (Thermograms): • FIG. 1. Thermogram of Dabigatran etexilate • FIG. 2. Thermogram of Dabigatran etexilate mesylate • FIG. 3. Thermogram of Esomeprazole • FIG. 4. Thermogram of Dexlansoprazole • FIG. 5. Thermogram of Dabigatran etexilate: Esomeprazole • FIG. 6. Thermogram of Dabigatran etexilate mesylate: Esomeprazole • FIG. 7. Thermogram of Dabigatran etexilate: Dexlansoprazole • FIG. 8. Thermogram of Dabigatran etexilate mesylate: Dexlansoprazole
(§4) Discussion: The characteristic degradation and melting peaks of active ingredients were not determined. It indicates pharmaceutical incompatibility of esomeprazole and dexlansoprazole with Dabigatran etexilate and Dabigatran etexilate mesylate.

[2] = DSC analysis of 1:1 API mixtures (compatibility with Dabigatran etexilate mesylate); format: physicochemical; settings: for DSC peak temperature of the mixture (peak shifting) / Compatibility by DSC: 1:1 mixture with Dabigatran etexilate mesylate; for DSC peak temperature of the mixture (peak shifting): 10° C./min, 30° C. to 300° C.; for Compatibility by DSC: characteristic peaks not determined; for Pharmaceutical incompatibility (discussion of DSC): with Dabigatran etexilate mesylate
Method: as §1, §2, §3, §4

| Compound | DSC peak temperature of the mixture (peak shifting) [1] [°C] | Compatibility by DSC [1] | Pharmaceutical incompatibility (discussion of DSC) [1] | DSC peak temperature of the mixture (peak shifting) [2] [°C] | Compatibility by DSC [2] | Pharmaceutical incompatibility (discussion of DSC) [2] |
| --- | --- | --- | --- | --- | --- | --- |
| Cc1c(OCC(F)(F)F)ccnc1C[S@@+]([O-])c1nc2ccccc2[nH]1 [Dexlansoprazole, (+)-2-[(R)-{[3-methyl-4-(2,2,2-trifluoroethoxy)pyridin-2-yl]methyl}sulfinyl]-1H-benzimidazole] | 87 | incompatible. | incompatibility | 82 | incompatible. | incompatibility |
| COc1ccc2nc([S@@+]([O-])Cc3ncc(C)c(OC)c3C)[nH]c2c1 [Esomeprazole, (S)-5-methoxy-2-[(4-methoxy-3,5-dimethylpyridin-2-yl)methylsulfinyl]-3H-benzoimidazole] | 174 | incompatible. | incompatibility | 176 | incompatible. | incompatibility |
